Test results taken from patent publication US20240228465A1, “SUBSTITUTED PYRIDINE N-OXIDE DERIVATIVES USEFUL AS A FACTOR XIA INHIBITORS” (Janssen Pharmaceutica NV, priority 2021, published 2024).

Key:
Factor XIa = Factor XIa (Homo sapiens, UniProt P03951); assay: Factor XIa inhibition assay utilizing a fluorophore-quencher pair peptide substrate (FLINT); assay type: biochemical; conditions: kinetic reads at 5 min intervals over 30 min; 30 min preincubation; read-out: FXIa (KIN) IC50
From the text: Biological Example 1: Factor XIa Inhibition Assay Utilizing a Fluorophore-Quencher Pair Peptide Substrate
A fluorescence intensity (FLINT) based assay was used to monitor inhibition of Factor XIa. The peptide substrate, 5Fam-KLTRAETV-K5Tamra (purchased from New England Peptide) was chosen based on the […]. Conversion of zymogen […]. The custom peptide used in this assay was based on the Arg146 cleavage site of FXI. The peptide substrate was designed with a fluorophore-quencher pair, where the fluorescence is quenched until FXIa cleaves the 8-mer peptide after the Arg residue. The substrate KM was fit to a substrate inhibition model whereby kcat=0.86 s^−1, KM=12.4 μM, Ki=61.6 μM with an enzymatic efficiency, and kcat/KM=69523 M^−1s^−1.
The Factor XIa FLINT assay was used with the following 5Fam-KLTRAETV-K5Tamra assay buffer: 50 mM Tris, pH 7.5, 100 mM NaCl, 5 mM CaCl2, 0.1 mg/mL BSA, 0.03% CHAPS. Assay buffer was prepared by mixing all ingredients fresh. 5Fam-KLTRAETV-K5Tamra peptide substrate was first prepared at 10 mM in 100% DMSO, then diluted to 3 mM in 100% DMSO. Assay buffer was then added directly to the 3 mM stock of substrate to prepare the 30 μM 2× working concentration (15 μM final concentration). The 2× Factor XIa stock solution was prepared by diluting 6.562 μM stock in 1× assay buffer for a […].
Test compound(s) were run in an 11-point, 3-fold serial dilution with a final top compound concentration of 100 nM. Final DMSO in assay was 2%. FXIa was preincubated with compound for 30-minutes and then substrate was added to initiate the reaction. The assay was run with either end point (EP) reads at 30 min or kinetic (KIN) reads at 5 min intervals over 30 minutes. The time course was linear using 100 μM FXIa greater than 30 minutes. More specifically, the assay was run as follows: • 100 nL of 0.01 mM test compound was dispensed into black 384-well non-binding Greiner BioOne 784900 plate for 0.1 μM final concentration; • 5 μL of 1× assay buffer was dispensed to column 24 (low control) and 5 μL 2× Factor XIa solution was dispensed to columns 1-23 (column 23 high control); • the plate was centrifuged with a “cover” plate at 500 rpm for 1 min • the plate was pre-incubated for 30 minutes at room temperature with plate covered; • 5 μL of 2× 5Fam-KLTRAETV-K5Tamra peptide substrate was dispensed into the entire plate, columns 1-24; • the plate was centrifuged with a “cover” plate at 500 rpm for 1 min; • the plate was read monitoring fluorescence intensity on the BMG PHERAStar at room temperature, using fluorescence module 485 nm/520 nm.
(§1) Percent inhibition (IC50) curves were generated per compound tested, and data was analyzed using a 4-parameter logistic fit using GeneData Screener. The relative fluorescence unit (RFU) values were normalized to percent inhibition using the following equation:
[formula] • where LC—low control=mean signal of no Factor XIa or 100% inhibition of Factor XIa; HC—high control=mean signal of Factor XIa+5Fam-KLTRAETV-K5Tamra peptide substrate with DMSO only.
(§2) An 11-point dose response curve for the test compound(s) was generated using GENDATA to determine IC50 value based on the following equation:
(§3) [formula] • where Y is the % inhibition in the presence of X inhibitor concentration, Top=high control=mean signal of Factor XIa+5Fam-KLTRAETV-K5Tamra peptide substrate with DMSO only; Bottom=low control—mean signal of no Factor XIa or 100% inhibition of Factor XIa; HillSlope—Hill coefficient; and IC50=concentration of compound with 50% inhibition in relation to top/high control.
Representative compounds of formula (I) of the present invention were tested according to the procedure described in Biological Example 1 and Biological Example 2 above, with results as listed in Table 3, below. […]

human plasma kallikrein = human plasma kallikrein (Homo sapiens, UniProt P03952); assay: Kallikrein inhibition assay utilizing a quenched AMC peptide substrate (FLINT); assay type: biochemical; conditions: kinetic reads at 5 min intervals over 30 min; 30 min preincubation; read-out: Kallikrein (KIN) IC50
Description: Biological Example 2: Kallikrein Inhibition Assay Utilizing a Quenched AMC Peptide Substrate
A fluorescence intensity (FLINT) based assay was used to monitor inhibition of human plasma kallikrein. The peptide substrate, Z-Gly-Pro-Arg-AMC (Purchased from Bachem; Catalog #I-1150) was chosen based on its relatively low KM for kallikrein which enables running the assay at lower substrate concentrations to control background fluorescence. The kinetic parameters for this substrate were determined by fitting titration data to the Michaelis-Menten equation yielding a KM=40 μm, kcat=0.76 s^−1, and kcat/KM=18932 M^−1s^−1.
The Kallikrein FLINT assay was used with the following Z-Gly-Pro-Arg-AMC assay buffer: 50 mM Tris, pH 7.5, 100 mM NaCl, 5 mM CaCl2, 0.1 mg/mL BSA, 0.03% CHAPS. Assay buffer was prepared by mixing all ingredients fresh. 2× Z-Gly-Pro-Arg-AMC peptide substrate was prepared by diluting 10 mM stock into 1× assay buffer for a 100 μM working concentration (50 μM final concentration). The 2× kallikrein stock solution was prepared by diluting 14.76 μM stock in 1× assay buffer for a 4 nM working stock solution (2 nM final concentration).
Test compound(s) were run in an 11-point, 3-fold serial dilution with a final top compound concentration of 1 μM. Final DMSO in assay was 2%. Plasma kallikrein was pre-incubated for 30-minute with compound and then 50 μM substrate was added to initiate the reaction. The assay was run with either end point (EP) reads at 30 min or kinetic (KIN) reads at 5 min intervals over 30 minutes. The time course was linear using 2 nM kallikrein greater than 30 minutes. More specifically, the assay was run as follows: • 100 nL of 0.1 mM test compound was dispensed into black 384-well non-binding Greiner BioOne 784900 plate for 1 μM final concentration; • 5 μL of 1× assay buffer was dispensed to columns 24 (low control) and 5 μL 2× human kallikrein enzyme solution was dispensed to columns 1-23 (column 23 high control); • the plate was centrifuged with a “cover” plate at 500 rpm for 1 min • the plate was pre-incubated for 30 minutes at room temperature with plate covered; • 5 μL of 2× Z-Gly-Pro-Arg-AMC peptide substrate was dispensed into the entire plate, columns 1-24; • the plate was centrifuged with a “cover” plate at 500 rpm for 1 min; • the plate was read monitoring fluorescence intensity on the BMG PHERAStar at room temperature, using fluorescence module 340 nm/440 nm.
as §1
% inhibition=((HC−LC)−(compound−LC)/(HC−LC))*100 • where LC—low control=mean signal of human kallikrein enzyme or 100% inhibition of human kallikrein enzyme; HC—high control=mean signal of Factor XIa+Z-Gly-Pro-Arg-AMC peptide substrate with DMSO only.
as §2
as §3, with “Y=Bottom+(Top−Bottom)/(1+10^((log IC50−X)*HillSlope))” for “[formula]”, “human kallikrein enzyme+Z-Gly-Pro-Arg-AMC” for “Factor XIa+5Fam-KLTRAETV-K5Tamra”, “human kallikrein enzyme” for “Factor XIa”, “human kallikrein enzyme;” for “Factor XIa;”
Representative compounds of formula (I) of the present invention were tested according to the procedure described in Biological Example 1 and Biological Example 2 above, with results as listed in Table 3, below. Results listed in the (ER) column were measured using endpoint reads where a single fluorescence reading was measured for each well at a 30 min timepoint. […]

Chain of Factor XIa (P03951 388-625 limits assumed): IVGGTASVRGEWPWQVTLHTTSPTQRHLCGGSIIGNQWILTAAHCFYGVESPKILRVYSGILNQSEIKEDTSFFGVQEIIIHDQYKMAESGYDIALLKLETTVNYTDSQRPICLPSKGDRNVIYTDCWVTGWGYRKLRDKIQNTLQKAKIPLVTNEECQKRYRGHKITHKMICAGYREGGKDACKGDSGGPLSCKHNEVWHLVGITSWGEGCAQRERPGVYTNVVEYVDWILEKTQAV
Chain of Factor XIa (P03951 19-387 partner limits assumed): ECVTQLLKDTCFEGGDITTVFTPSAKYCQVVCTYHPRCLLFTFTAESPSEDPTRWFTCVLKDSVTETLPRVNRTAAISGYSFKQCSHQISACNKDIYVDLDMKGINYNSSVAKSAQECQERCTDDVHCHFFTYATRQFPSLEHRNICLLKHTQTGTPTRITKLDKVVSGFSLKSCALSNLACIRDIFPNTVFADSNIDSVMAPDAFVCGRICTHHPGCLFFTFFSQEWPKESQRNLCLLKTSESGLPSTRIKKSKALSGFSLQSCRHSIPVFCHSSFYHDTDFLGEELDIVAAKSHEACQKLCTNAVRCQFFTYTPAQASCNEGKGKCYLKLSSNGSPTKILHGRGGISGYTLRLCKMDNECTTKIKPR
Chain of human plasma kallikrein (P03952 391-638 limits assumed): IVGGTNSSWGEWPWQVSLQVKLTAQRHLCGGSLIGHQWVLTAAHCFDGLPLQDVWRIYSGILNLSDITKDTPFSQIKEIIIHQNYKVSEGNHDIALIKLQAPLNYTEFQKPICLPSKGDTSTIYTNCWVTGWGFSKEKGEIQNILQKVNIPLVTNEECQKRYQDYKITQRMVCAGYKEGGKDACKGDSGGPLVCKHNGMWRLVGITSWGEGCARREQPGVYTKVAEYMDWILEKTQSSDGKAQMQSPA
Chain of human plasma kallikrein (P03952 20-390 partner limits assumed): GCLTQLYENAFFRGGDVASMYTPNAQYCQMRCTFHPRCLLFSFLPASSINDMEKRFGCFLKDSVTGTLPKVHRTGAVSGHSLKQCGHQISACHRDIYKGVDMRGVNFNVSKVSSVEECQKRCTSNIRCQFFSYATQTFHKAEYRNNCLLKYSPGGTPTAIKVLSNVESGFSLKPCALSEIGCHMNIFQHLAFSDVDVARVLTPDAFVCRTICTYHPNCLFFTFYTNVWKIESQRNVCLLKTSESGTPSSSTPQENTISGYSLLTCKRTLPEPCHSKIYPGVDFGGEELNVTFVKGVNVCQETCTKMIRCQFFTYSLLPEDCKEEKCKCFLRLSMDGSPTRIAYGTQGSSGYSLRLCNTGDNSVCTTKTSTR

Row | IC50 (Factor XIa) | IC50 (human plasma kallikrein) | SMILES
1 | 0.5 nM | 29 nM | [O-][n+]1cc(-c2c(-n3cnnn3)ccc(Cl)c2F)ccc1[C@@H](CCOC(F)F)n1cnc(-c2cnnn2C(F)F)c1 [M14, (R)-5-(3-Chloro-2-fluoro-6-(1H-tetrazol-1-yl)phenyl)-2-(3-(difluoromethoxy)-1-(4-(1-(difluoromethyl)-1H-1,2,3-triazol-5-yl)-1H-imidazol-1-yl)propyl)pyridine 1-oxide]
2 | 0.5 nM | 48.9 nM | Cn1nncc1-c1cn([C@H](CCOC(F)F)c2ccc(-c3c(-n4cc(C(F)(F)F)nn4)ccc(Cl)c3F)c[n+]2[O-])cn1 [M10, (R)-5-(3-Chloro-2-fluoro-6-(4-(trifluoromethyl)-1H-1,2,3-triazol-1-yl)phenyl)-2-(3-(difluoromethoxy)-1-(4-(1-methyl-1H-1,2,3-triazol-5-yl)-1H-imidazol-1-yl)propyl)pyridine 1-oxide]
